This passage reports IC50 results from US20130281465A1, “PYRAZOLE DERIVATIVE” (TAISHO PHARMACEUTICAL CO., LTD., priority 2010, published 2013).

The target in assay [1] is T1, orexin type 2 receptor (hOX2R) (Homo sapiens, UniProt O43614).
T1 construct: expressed in transfected cells; host or cells: Chinese hamster ovary (CHO) cells
T1 sequence (O43614 1-444): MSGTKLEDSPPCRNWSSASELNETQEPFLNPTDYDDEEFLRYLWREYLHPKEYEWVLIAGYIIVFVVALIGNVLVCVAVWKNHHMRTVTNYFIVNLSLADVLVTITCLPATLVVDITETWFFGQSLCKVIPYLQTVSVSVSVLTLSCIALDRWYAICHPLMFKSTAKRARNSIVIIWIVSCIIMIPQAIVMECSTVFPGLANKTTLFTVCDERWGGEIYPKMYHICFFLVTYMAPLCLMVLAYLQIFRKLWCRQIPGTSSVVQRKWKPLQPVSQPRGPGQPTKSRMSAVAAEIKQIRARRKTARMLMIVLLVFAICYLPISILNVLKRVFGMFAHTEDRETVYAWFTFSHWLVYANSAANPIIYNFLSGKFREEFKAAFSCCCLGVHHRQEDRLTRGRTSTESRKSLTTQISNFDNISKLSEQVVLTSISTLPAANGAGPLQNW
Kind of assay: Orexin receptor antagonistic activity, intracellular Ca2+ fluorescence (FDSS) in CHO cells expressing hOX2R. To be noted: CHO cells forced to express hOX2R; orexin-A analogue peptide ligand 3 nM; Fluo-4 maximum fluorescence; read-out: IC50 value OX2R. It counts as cell-based. Here is the method: (§1) The antagonistic activity of each test compound against human orexin type 1 receptor (hOX1R) and orexin type 2 receptor (hOX2R) was performed as described in the literature with a modification (Toshikatsu Okumura et al., Biochemical and Biophysical Research Communications 280, 976-981, 2001). Chinese hamster ovary (CHO) cells forced to express hOX1R or hOX2R were seeded at 20,000 cells/well on a 96 well Black clear bottom plates (Nunc) and cultured for 16 hours under conditions of 37° C. and 5% CO2 using a Ham's F-12 medium containing 0.1 mM MEM non-essential amino acids, 0.5 mg/ml G418, and 10% fetal bovine serum (all from Invitrogen Corp.). After removal of the medium, 100 μL of the assay buffer (25 mM HEPES (Dojindo Laboratories), Hanks' balanced salt solution (Invitrogen Corp.), 0.1% bovine serum albumin, 2.5 mM probenecid, 200 μg/ml Amaranth (all from Sigma-Aldrich Corp.), pH 7.4) containing 0.5 μM Fluo-4AM ester (Dojindo Laboratories) was added thereto, and the cells were incubated for 60 minutes under conditions of 37° C. and 5% CO2. After removal of the buffer solution for assay containing Fluo-4AM ester, the test compound was dissolved at a concentration of 10 mM in dimethyl sulfoxide and diluted with the assay buffer, and 150 μL of the diluted solution was then added to each wells, which were then incubated for 30 minutes.
(§2) A peptide (Pyr-[…]11e-Leu-Thr-Leu-NH2; Peptide Institute, Inc.) substituted 2 amino acids of human orexin-A was diluted with the assay buffer to 300 pM (final concentration for hOX1R) or 3 nM (final concentration for hOX2R). 50 μL of this ligand solution was added thereto to start reaction. During the reaction, the fluorescence value of each well was measured every one second for 3 minutes using Functional Drug Screening System (FDSS; manufactured by Hamamatsu Photonics K.K.), and antagonistic activity was determined with the maximum fluorescence value as an index for intracellular Ca^2+ concentration. The antagonistic activity of the test compound was calculated with the fluorescence value of a well supplemented with only a dilution buffer solution as 100% and the fluorescence value of a well supplemented with a buffer solution containing neither the ligand nor the compound as 0%, and determined in terms of 50% inhibitory concentration (IC50 value) from fluorescence values derived from the test compound added at varying concentrations.

For assay [2], the target named is T2, human orexin type 1 receptor (hOX1R) (Homo sapiens, UniProt O43613).
T2 construct: expressed in transfected cells; host or cells: Chinese hamster ovary (CHO) cells
T2 sequence (O43613 1-425): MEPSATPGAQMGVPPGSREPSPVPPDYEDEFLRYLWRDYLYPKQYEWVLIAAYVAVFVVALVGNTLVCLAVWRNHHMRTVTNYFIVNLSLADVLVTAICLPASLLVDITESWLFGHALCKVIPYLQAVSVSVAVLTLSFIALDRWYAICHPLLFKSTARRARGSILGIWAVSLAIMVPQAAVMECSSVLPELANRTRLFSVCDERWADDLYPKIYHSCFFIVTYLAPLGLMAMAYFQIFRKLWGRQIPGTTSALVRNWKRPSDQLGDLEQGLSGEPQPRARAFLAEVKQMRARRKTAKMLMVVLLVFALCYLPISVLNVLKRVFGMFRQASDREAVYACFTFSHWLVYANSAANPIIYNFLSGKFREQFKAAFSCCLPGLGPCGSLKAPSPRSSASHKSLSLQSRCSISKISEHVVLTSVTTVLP
Kind of assay: Orexin receptor antagonistic activity, intracellular Ca2+ fluorescence (FDSS) in CHO cells expressing hOX1R. The class given is cell-based. Particulars: CHO cells forced to express hOX1R; orexin-A analogue peptide ligand 300 pM; Fluo-4 maximum fluorescence; read-out: IC50 value OX1R. Here is the method: as §1, §2

In the case of `Cc1ccc(-n2nccn2)c(C(=O)N(CCn2cc(-c3ccc(F)cn3)cn2)C(C)C)c1` [Example 14, N-{2-[4-(5-fluoropyridin-2-yl)-1H-pyrazol-1-yl]ethyl}-5-methyl-N-(propan-2-yl)-2-(2H-1,2,3-triazol-2-yl)benzamide], the IC50 in assay [1] came out at 412 nM; in assay [2] it was 597 nM.
In the case of `CCN(CCn1ccc(-c2ccc(F)cn2)n1)C(=O)c1cc(Cl)ccc1-n1nccn1` [Example 33, 5-Chloro-N-ethyl-N-{2-[3-(5-fluoropyridin-2-yl)-1H-pyrazol-1-yl]ethyl}-2-(2H-1,2,3-triazol-2-yl)benzamide], the IC50 is 2.2 nM in assay [1] and 6.5 nM in assay [2].
For the compound `Cc1ccc(-n2nccn2)c(C(=O)N(CCF)CCn2ccc(-c3ccc(F)cn3)n2)c1` [Example 21, N-{2-[3-(5-fluoropyridin-2-yl)-1H-pyrazol-1-yl]ethyl}-5-methyl-N-(2-fluoroethyl)-2-(2H-1,2,3-triazol-2-yl)benzamide], the half-maximal inhibitory concentration (IC50) worked out at 20.3 nM in assay [1] and 3.7 nM in assay [2].
Turning to `CCN(CCn1ccc(-c2ccc(F)cn2)n1)C(=O)c1ccc(F)cc1-c1ncccn1` [Example 49, N-ethyl-4-fluoro-N-{2-[3-(5-fluoropyridin-2-yl)-1H-pyrazol-1-yl]ethyl}-2-(pyrimidin-2-yl)benzamide], the 50% inhibitory concentration (IC50) in assay [1] was found to be 48.8 nM; in assay [2], 7.1 nM.
In the same order, the values of `CCN(CCn1ccc(-c2ccc(F)cn2)n1)C(=O)c1ccccc1-n1nccn1` [Example 32, N-ethyl-N-{2-[3-(5-fluoropyridin-2-yl)-1H-pyrazol-1-yl]ethyl}-2-(2H-1,2,3-triazol-2-yl)benzamide] are 6.6 nM and 9 nM.
For the compound `Cc1ccc(-n2nccn2)c(C(=O)NCCn2ccc(-c3ccc(F)cn3)n2)c1` [Example 16, N-{2-[3-(5-fluoropyridin-2-yl)-1H-pyrazol-1-yl]ethyl}-5-methyl-2-(2H-1,2,3-triazol-2-yl)benzamide], the figures for the IC50 in assay [1] and in assay [2] were 598 nM and 115 nM, respectively.
In the same order, the values of `CCN(CCn1ccc(-c2ccc(F)cn2)n1)C(=O)c1cc(F)ccc1-n1nccn1` [Example 24, N-ethyl-N-{2-[3-(5-fluoropyridin-2-yl)-1H-pyrazol-1-yl]ethyl}-5-fluoro-2-(2H-1,2,3-triazol-2-yl)benzamide] are 12.2 nM and 7.2 nM.
Regarding `Cc1ccc(-n2nccn2)c(C(=O)N(CCn2ccc(-c3ccc(F)cn3)n2)CC2CC2)c1` [Example 18, N-(cyclopropylmethyl)-N-{2-[3-(5-fluoropyridin-2-yl)-1H-pyrazol-1-yl]ethyl}-5-methyl-2-(2H-1,2,3-triazol-2-yl)benzamide], the IC50 in assay [1] is 2.2 nM; in assay [2] it was 6.8 nM.
With `Cc1ccc(-n2nccn2)c(C(=O)N(CCn2ccc(-c3ccc(F)cn3)n2)C2COC2)c1` [Example 31, N-{2-[3-(5-fluoropyridin-2-yl)-1H-pyrazol-1-yl]ethyl}-5-methyl-N-(oxetan-3-yl)-2-(2H-1,2,3-triazol-2-yl)benzamide], the results for the IC50 in assay [1] and in assay [2] were 26.9 nM and 24.9 nM, respectively.
In the case of `CCN(CCn1ccc(-c2ccc(F)cn2)n1)C(=O)c1cc(C)ccc1-c1ncccn1` [Example 26, N-ethyl-N-{2-[3-(5-fluoropyridin-2-yl)-1H-pyrazol-1-yl]ethyl}-5-methyl-2-(pyrimidin-2-yl)benzamide], the 50% inhibitory concentration (IC50) stood at 3.7 nM in assay [1] and 1.4 nM in assay [2].
Turning to `CCN(CCn1ccc(-c2cc(C(F)(F)F)ccn2)n1)C(=O)c1cc(C)ccc1-n1nccn1` [Example 60, N-ethyl-5-methyl-2-(2H-1,2,3-triazol-2-yl)-N-(2-{3-[4-(trifluoromethyl)pyridin-2-yl]-1H-pyrazol-1-yl}ethyl)benzamide], the results for the concentration for half-maximal inhibition (IC50) in assay [1] and in assay [2] were 127 nM and 21.9 nM, respectively.
In the case of `Cc1ccc(-n2nccn2)c(C(=O)N(C)CCn2ccc(-c3ccc(F)cn3)n2)c1` [Example 17, N-{2-[3-(5-fluoropyridin-2-yl)-1H-pyrazol-1-yl]ethyl}-N,5-dimethyl-2-(2H-1,2,3-triazol-2-yl)benzamide], the figures for the half-inhibitory concentration (IC50) in assay [1] and in assay [2] were 22.8 nM and 5.6 nM, respectively.
The matching figures for `CCN(CCn1cc(-c2ccc(F)cn2)cn1)C(=O)c1cc(Cl)ccc1-n1nccn1` [Example 55, 5-Chloro-N-ethyl-N-{2-[4-(5-fluoropyridin-2-yl)-1H-pyrazol-1-yl]ethyl}-2-(2H-1,2,3-triazol-2-yl)benzamide]: 2.3 nM and 1.6 nM.
Take `Cc1ccc(-n2nccn2)c(C(=O)N(CCn2cc(-c3ccc(F)cn3)cn2)CC2CC2)c1` [Example 5, N-(cyclopropylmethyl)-N-{2-[4-(5-fluoropyridin-2-yl)-1H-pyrazol-1-yl]ethyl}-5-methyl-2-(2H-1,2,3-triazol-2-yl)benzamide]: the 50% inhibitory concentration (IC50) came out at 38.7 nM in assay [1] and 102 nM in assay [2].
For the compound `Cc1ccc(-n2nccn2)c(C(=O)N(CCn2ccc(-c3ccc(F)cn3)n2)CC(F)F)c1` [Example 22, N-(2,2-difluoroethyl)-N-{2-[3-(5-fluoropyridin-2-yl)-1H-pyrazol-1-yl]ethyl}-5-methyl-2-(2H-1,2,3-triazol-2-yl)benzamide], the figures for the half-maximal inhibitory concentration (IC50) in assay [1] and in assay [2] were 32.5 nM and 10.5 nM, respectively.
